Experimental data published in patent US10450258B2, “Substituted aromatic compounds for the treatment of pulmonary fibrosis, liver fibrosis, skin fibrosis and cardiac fibrosis” (PROMETIC PHARMA SMT LIMITED, priority 2013, dated 2019).
Entries after “also recorded” stand apart in the source; their conditions may differ.

Experiments:
[1] = system: collagen 1 mRNA in NHDF cells; test: Inhibition of collagen mRNA in TGF-β-activated NHDF fibroblasts; format: cell-based; conditions: Homo sapiens, compound 0.5 mM
Procedure: (§1) CTGF, collagen 1 and α-SMA are fibrotic markers produced by activated fibroblasts and by epithelial cells that undergo to epithelial-mesenchymal transition (EMT).
(§2) Table 2: Percentage of inhibition of collagen in epithelial cells (HK2 cells) and fibroblasts (NHDF) and percentage of inhibition of α-SMA in fibroblasts (NRK-49F and NHDF) has been determined for several compounds according the invention. In all cases, the mRNA of collagen and α-SMA has been measured, and the inhibition was evaluated in presence of a respective concentration of the tested compound. The compounds have been tested at different concentrations [mM]. All compounds reduce the expression of collagen and α-SMA in HK-2, NHDF and NRK-49F cells.

[2] = system: bleomycin-induced pulmonary fibrosis mouse model; test: Bleomycin-induced pulmonary fibrosis mouse model: body weight and lung histology; format: in vivo, mouse (male C57BL6)
Procedure: Intratracheal instillation of the anticancer drug bleomycin into the mouse results in acute inflammation followed by a chronic fibrotic response. Therefore, evaluation of candidate antifibrotic drugs such as Compound I can be undertaken by treatment of the mice at appropriate time points and histologic, biochemical and cellular readouts may be used to monitor candidate drug efficacy in this model.
(§3) Male C57BL6 mice are administered intratracheal instillation of bleomycin sulphate (0.025 U) at day 0, randomized and administered Compound I (oral administration, 100 mg/kg and 200 mg/kg) on day 7 to day 20.
Lesions score was evaluated using HEP (Hemalun with Eosin/Ploxine) and Masson's trichrome staining. Lesions score was recorded as 1) Consolidation as shown by disrupted lung architecture (cellular and/or fibrosis) and 2) Alveolar wall as shown by thickness and shrinking outside of consolidated area.
(§4) It was therefore evaluated side-by-side with Compound I in the bleomycin-induced pulmonary fibrosis mouse model by the same protocol described in Example 4 above. Compound I (200 mg/kg) and pirfenidone (400 mg/kg) were orally administered either alone or in combination.
Lesions score was evaluated using HEP (Hemalun with Eosin/Ploxine) and Masson's trichrome staining and recorded as 1) Consolidation as shown by disrupted lung architecture (cellular and/or fibrosis), and 2) Alveolar wall as shown by thickness and shrinking outside of consolidated area.
The lesions score as determined by the percentage of leukocyte infiltration (inflammatory zone) multiplied by the percentage of collagen found in the leukocyte infiltrate was quantified by histomorphometry using Masson's trichrome staining.
Visual grading of pulmonary fibrosis was also determined according to Ashcroft's score. Briefly, the entire fields of each lung section were read by a blinded examiner, and each field was visually graded from 0 to 8. Criteria for grading lung fibrosis were as follows: Grade 0=normal lung; Grade 1=minimal fibrous thickening of alveolar or bronchiolar walls; Grade 3=moderate thickening of walls without obvious damage to lung architecture; Grade 5=increased fibrosis with definitive damage to lung structure and formation of fibrous bands or small fibrous masses; Grade 7=severe distortion of structure and large fibrous area; Grade 8=total fibrous obliteration of lung fields.

[3] = system: TGF-β, CTGF, IL-23p19, IL-6, collagen 1, fibronectin (FN-1), collagen 3 mRNA in lung tissue; test: Real-time PCR of inflammatory and fibrotic marker mRNA in lung tissue, bleomycin-induced pulmonary fibrosis mouse model; format: in vivo, mouse (male C57BL6)
Procedure: as §3
Further analysis of the lung tissue was undertaken. CTGF, collagen 1 and IL-23p19 mRNA expression was quantified by real-time PCR.
as §4
In order to determine the effect of Compound I on pulmonary fibrosis, further analysis of the lung tissue was undertaken. TGF-β, CTGF, IL-23 and IL-6 mRNA expression was quantified by real-time PCR. […] Oral administration of pirfenidone had no effect on CTGF mRNA expression but decreased TGF-β, IL-23 and IL-6 mRNA expression. […]

[4] = system: α-SMA mRNA in NRK-49F cells; test: Inhibition of α-SMA mRNA in TGF-β-activated NRK-49F fibroblasts; format: cell-based, rat; conditions: Rattus norvegicus, NRK-49F, compound 0.5 mM
Procedure: as §1, §2

CCCCCc1cccc(CC(=O)[O-])c1.[Na+] [Compound I, Sodium Salt of 3-pentylphenylacetic acid]
inhibition at 500 µM [1]: 65%
body weight loss ([2]; oral 200 mg/kg, day 7 to day 20, FIG. 1): reduced this body weight loss
recovery of the body weight loss ([2]; oral 100 and 200 mg/kg vs vehicle (Bleo), FIG. 1 legend): recovery of the body weight loss
histological lesions score of lungs (HEP and Masson's trichrome) ([2]; oral 100 and 200 mg/kg, day 7 to day 20, FIG. 2): significant reduction of lesions; also recorded: reduced histological lesions in a dose-dependent manner
lesions and fibrosis in lungs (photomicrographs) ([2]; oral 100 and 200 mg/kg, FIG. 3): reduced lesions and fibrosis in lungs
lesions score: percentage of leukocyte infiltration multiplied by percentage of collagen in the leukocyte infiltrate (histomorphometry, Masson's trichrome) ([2]; oral Compound I 200 mg/kg, FIG. 9): significantly reduced
percentage of lungs affected by bleomycin ([2]; oral, Compound I 200 mg/kg, pirfenidone 400 mg/kg, alone or combined, FIG. 7): lower
histological lesion score of lungs (HEP and Masson's trichrome) ([2]; oral, Compound I 200 mg/kg, pirfenidone 400 mg/kg, alone or combined, FIG. 8): significantly reduced histological lesions
visual grading of pulmonary fibrosis (Ashcroft's score) ([2]; oral, Compound I 200 mg/kg, pirfenidone 400 mg/kg, alone or combined, FIG. 11): reduced
lesions and fibrosis in lungs (photomicrographs stained with HEP) ([2]; oral, Compound I 200 mg/kg, pirfenidone 400 mg/kg, FIG. 10): reduced lesions and fibrosis in lungs
CTGF mRNA expression in lungs ([3]; oral 100 and 200 mg/kg, Example 21, FIG. 4): significantly decreased the expression
IL-23p19 mRNA expression in lungs ([3]; oral 100 and 200 mg/kg, Example 21, FIG. 5): significantly decreased the expression
collagen 1 mRNA expression in lungs ([3]; oral 100 and 200 mg/kg, Example 21, FIG. 6): significantly decreased the expression
TGF-β mRNA expression in lungs ([3]; oral, Compound I 200 mg/kg, pirfenidone 400 mg/kg, alone or combined, FIG. 12): significantly decreased the expression
CTGF mRNA expression in lungs ([3]; oral, Compound I 200 mg/kg, pirfenidone 400 mg/kg, alone or combined, FIG. 13): significantly decreased the expression
IL-23 mRNA expression in lungs ([3]; oral, Compound I 200 mg/kg, pirfenidone 400 mg/kg, alone or combined, FIG. 14): significantly decreased the expression
IL-6 mRNA expression in lungs ([3]; oral, Compound I 200 mg/kg, pirfenidone 400 mg/kg, alone or combined, FIG. 15): significantly decreased the expression
collagen 3 mRNA expression in lungs ([3]; oral, Compound I 200 mg/kg, pirfenidone 400 mg/kg, alone or combined, FIG. 18): weak reduction
collagen 1 mRNA expression in lungs ([3]; oral, Compound I 200 mg/kg, pirfenidone 400 mg/kg, alone or combined, reduction to the control level, FIG. 16): significant reduction
fibronectin (FN-1) mRNA expression in lungs ([3]; oral, Compound I 200 mg/kg, pirfenidone 400 mg/kg, alone or combined, reduction to the control level, FIG. 17): significant reduction
inhibition at 500 µM [4]: 85%
